Results published in US6737383B1, “Herbicidal oxadiazolidines” (priority 1999, dated 2004).

Legend:
bamyardgrass = assay: Test B flood test barnyardgrass; type: in vivo, Echinochloa crus-galli
Procedure, shortened: (§1)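 Each value is a visual injury score relative to controls, with 10 meaning complete control and 0 no effect. Evaluation took place twelve to sixteen days after the 2-leaf-stage plants were treated and kept in the greenhouse.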

wild oat = assay: Test B pre/postemergence wild oat; type: in vivo, Avena fatua
Procedure, shortened: (§2)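 Response is a visual 0-to-10 score relative to untreated plants, where 0 means no effect and 10 means complete control, taken twelve to sixteen days after application. Treatments went onto soil at planting and onto foliage of 1- to 4-leaf plants, using a surfactant-containing non-phytotoxic solvent.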

crabgrass = assay: Test B pre/postemergence crabgrass; type: in vivo, Digitaria sanguinalis
Procedure, shortened: as §2

morningglory = assay: Test B pre/postemergence morningglory; type: in vivo, Ipomoea hederacea
Procedure, shortened: as §2

corn = assay: Test B pre/postemergence corn; type: in vivo, Zea mays
Procedure, shortened: as §2

rice = assay: Test B flood test rice; type: in vivo, Oryza sativa
Procedure, shortened: as §1

bedstraw = assay: Test B pre/postemergence bedstraw; type: in vivo, Galium aparine
Procedure, shortened: as §2

sugar beet = assay: Test B pre/postemergence sugar beet; type: in vivo, Beta vulgaris
Procedure, shortened: as §2

smallflower flatsedge = assay: Test B flood test smallflower flatsedge; type: in vivo, Cyperus difformis
Procedure, shortened: as §1

giant foxtail = assay: Test B pre/postemergence giant foxtail; type: in vivo, Setaria faberii
Procedure, shortened: as §2

velvetleaf = assay: Test B pre/postemergence velvetleaf; type: in vivo, Abutilon theophrasti
Procedure, shortened: as §2

surinam grass = assay: Test B pre/postemergence surinam grass; type: in vivo, Brachiaria decumbens
Procedure, shortened: as §2

cocklebur = assay: Test B pre/postemergence cocklebur; type: in vivo, Xanthium strumarium
Procedure, shortened: as §2

rape = assay: Test B pre/postemergence rape; type: in vivo, Brassica napus
Procedure, shortened: as §2

blackgrass = assay: Test B pre/postemergence blackgrass; type: in vivo, Alopecurus myosuroides
Procedure, shortened: as §2

pigweed = assay: Test B pre/postemergence pigweed; type: in vivo, Amaranthus retroflexus
Procedure, shortened: as §2

[1] = Rate 62 g/ha, headed Pre-emergence (flood test species), scale 0 to 10 (0 no effect, 10 complete control)
[2] = Rate 125 g/ha, Pre-emergence, flood test species, scale 0 to 10 where 0 is no effect and 10 is complete control
[3] = Rate 250 g/ha, headed Pre-emergence (flood test species), scale 0 to 10 (0 no effect, 10 complete control)
[4] = Rate 500 g/ha, headed Pre-emergence (flood test species), scale 0 to 10 (0 no effect, 10 complete control)
[5] = Postemergence, Rate 62 g/ha, scale 0 to 10, 0 is no effect, 10 is complete control
[6] = Postemergence, Rate 250 g/ha, scale 0 to 10, 0 no effect, 10 complete control
[7] = Preemergence, Rate 62 g/ha, scale 0 to 10 (0 no effect, 10 complete control)
[8] = Preemergence, Rate 125 g/ha, scale 0 to 10 (0 no effect, 10 complete control)
[9] = Preemergence, Rate 250 g/ha, scale of 0 to 10 where 0 is no effect and 10 is complete control
[10] = Preemergence, Rate 500 g/ha, scale 0 (no effect) to 10 (complete control)
[11] = Rate 125 g/ha, Postemergence, scale 0 to 10, 0 no effect, 10 complete control
[12] = Rate 500 g/ha, Postemergence, scale 0 to 10, 0 no effect, 10 complete control

Compound: Cc1ccccc1-n1c(=O)on(C(=O)N(Cc2ccccc2)C(C)C)c1=O [Compound 72]
- Barnyardgrass plant response rating (bamyardgrass; [1]): 0
- Barnyardgrass plant response rating (bamyardgrass; [2]): 0
- Barnyardgrass plant response rating (bamyardgrass; [3]): 0
- Plant response rating, Barnyardgrass (bamyardgrass; [4]): 0
- Wild oats plant response rating (wild oat; [5]): 0
- Wild oats plant response rating (wild oat; [6]): 0
- Wild oats plant response rating (wild oat; [7]): 0
- Plant response rating, Wild oats (wild oat; [8]): 0
- Plant response rating, Wild oats (wild oat; [9]): 0
- Wild oats plant response rating (wild oat; [10]): 0
- Wild oats plant response rating (wild oat; [11]): 0
- Wild oats plant response rating (wild oat; [12]): 0
- Crabgrass plant response rating (crabgrass; [5]): 0
- Crabgrass plant response rating (crabgrass; [6]): 0
- Crabgrass plant response rating (crabgrass; [7]): 0
- Plant response rating, Crabgrass (crabgrass; [8]): 0
- Plant response rating, Crabgrass (crabgrass; [9]): 0
- Crabgrass plant response rating (crabgrass; [10]): 4
- Crabgrass plant response rating (crabgrass; [11]): 0
- Crabgrass plant response rating (crabgrass; [12]): 0
- Morningglory plant response rating (morningglory; [5]): 0
- Morningglory plant response rating (morningglory; [6]): 0
- Morningglory plant response rating (morningglory; [7]): 0
- Plant response rating, Morningglory (morningglory; [8]): 0
- Plant response rating, Morningglory (morningglory; [9]): 0
- Morningglory plant response rating (morningglory; [10]): 0
- Morningglory plant response rating (morningglory; [11]): 0
- Morningglory plant response rating (morningglory; [12]): 0
- Corn plant response rating (corn; [5]): 0
- Corn plant response rating (corn; [6]): 0
- Corn plant response rating (corn; [7]): 0
- Plant response rating, Corn (corn; [8]): 0
- Plant response rating, Corn (corn; [9]): 0
- Corn plant response rating (corn; [10]): 0
- Corn plant response rating (corn; [11]): 0
- Corn plant response rating (corn; [12]): 0
- Rice plant response rating (rice; [1]): 0
- Rice plant response rating (rice; [2]): 0
- Rice plant response rating (rice; [3]): 0
- Plant response rating, Rice (rice; [4]): 0
- Bedstraw plant response rating (bedstraw; [5]): 0
- Bedstraw plant response rating (bedstraw; [6]): 0
- Bedstraw plant response rating (bedstraw; [7]): 0
- Plant response rating, Bedstraw (bedstraw; [8]): 0
- Plant response rating, Bedstraw (bedstraw; [9]): 0
- Bedstraw plant response rating (bedstraw; [10]): 0
- Bedstraw plant response rating (bedstraw; [11]): 0
- Bedstraw plant response rating (bedstraw; [12]): 0
- Sugarbeets plant response rating (sugar beet; [5]): 0
- Sugarbeets plant response rating (sugar beet; [6]): 0
- Sugarbeets plant response rating (sugar beet; [7]): 0
- Plant response rating, Sugarbeets (sugar beet; [8]): 0
- Plant response rating, Sugarbeets (sugar beet; [9]): 0
- Sugarbeets plant response rating (sugar beet; [10]): 0
- Sugarbeets plant response rating (sugar beet; [11]): 0
- Sugarbeets plant response rating (sugar beet; [12]): 0
- S. Flatsedge plant response rating (smallflower flatsedge; [1]): 0
- S. Flatsedge plant response rating (smallflower flatsedge; [2]): 0
- S. Flatsedge plant response rating (smallflower flatsedge; [3]): 0
- Plant response rating, S. Flatsedge (smallflower flatsedge; [4]): 0
- Giant foxtail plant response rating (giant foxtail; [5]): 0
- Giant foxtail plant response rating (giant foxtail; [6]): 0
- Giant foxtail plant response rating (giant foxtail; [7]): 0
- Plant response rating, Giant foxtail (giant foxtail; [8]): 0
- Plant response rating, Giant foxtail (giant foxtail; [9]): 2
- Giant foxtail plant response rating (giant foxtail; [10]): 2
- Giant foxtail plant response rating (giant foxtail; [11]): 0
- Giant foxtail plant response rating (giant foxtail; [12]): 0
- Velvetleaf plant response rating (velvetleaf; [5]): 0
- Velvetleaf plant response rating (velvetleaf; [6]): 0
- Velvetleaf plant response rating (velvetleaf; [7]): 0
- Plant response rating, Velvetleaf (velvetleaf; [8]): 0
- Plant response rating, Velvetleaf (velvetleaf; [9]): 0
- Velvetleaf plant response rating (velvetleaf; [10]): 0
- Velvetleaf plant response rating (velvetleaf; [11]): 0
- Velvetleaf plant response rating (velvetleaf; [12]): 0
- B. signalgrass plant response rating (surinam grass; [5]): 0
- B. signalgrass plant response rating (surinam grass; [6]): 0
- B. signalgrass plant response rating (surinam grass; [7]): 0
- Plant response rating, B. signalgrass (surinam grass; [8]): 0
- Plant response rating, B. signalgrass (surinam grass; [9]): 0
- B. signalgrass plant response rating (surinam grass; [10]): 0
- B. signalgrass plant response rating (surinam grass; [11]): 0
- B. signalgrass plant response rating (surinam grass; Rate 500 g/ha, Postemergence, scale of 0 to 10 where 0 is no effect and 10 is complete control): 0
- Cocklebur plant response rating (cocklebur; [5]): 0
- Cocklebur plant response rating (cocklebur; [6]): 0
- Cocklebur plant response rating (cocklebur; [7]): 0
- Plant response rating, Cocklebur (cocklebur; [8]): 0
- Plant response rating, Cocklebur (cocklebur; [9]): 0
- Cocklebur plant response rating (cocklebur; [10]): 0
- Cocklebur plant response rating (cocklebur; [11]): 0
- Cocklebur plant response rating (cocklebur; [12]): 0
- Rape plant response rating (rape; [5]): 0
- Rape plant response rating (rape; [6]): 0
- Rape plant response rating (rape; [7]): 0
- Plant response rating, Rape (rape; [8]): 0
- Plant response rating, Rape (rape; [9]): 0
- Rape plant response rating (rape; [10]): 0
- Rape plant response rating (rape; [11]): 0
- Rape plant response rating (rape; [12]): 0
- Blackgrass plant response rating (blackgrass; [5]): 0
- Blackgrass plant response rating (blackgrass; [6]): 0
- Blackgrass plant response rating (blackgrass; [7]): 0
- Plant response rating, Blackgrass (blackgrass; [8]): 0
- Plant response rating, Blackgrass (blackgrass; [9]): 0
- Blackgrass plant response rating (blackgrass; [10]): 0
- Blackgrass plant response rating (blackgrass; [11]): 0
- Blackgrass plant response rating (blackgrass; [12]): 0
- Redroot pigweed plant response rating (pigweed; [5]): 0
- Redroot pigweed plant response rating (pigweed; [6]): 0
- Redroot pigweed plant response rating (pigweed; [7]): 0
- Plant response rating, Redroot pigweed (pigweed; [8]): 0
- Plant response rating, Redroot pigweed (pigweed; [9]): 0
- Redroot pigweed plant response rating (pigweed; [10]): 0
- Redroot pigweed plant response rating (pigweed; [11]): 0
- Redroot pigweed plant response rating (pigweed; [12]): 0
